The record followed here is ChEMBL document CHEMBL1201862, “PubChem BioAssay data set” (2004).

Some test systems named below: TK-10; HOP-62; UACC-62; OVCAR-4; HCT-15; MDA-MB-231; T47D; RXF 393; CAKI-1; KM12; HL-60; BT-549; SNB-19; RPMI-8226; ACHN; SK-MEL-5; OVCAR-3; SK-MEL-28; NCI-H226; NCI-H522.
What all share (experiment): growth of human tumour cells (NCI), 48 h

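Test compounds were applied to cells in 96-well plates for 48 hours at 5 doses. GI50 = concentration required for 50% inhibition of growth.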 Calls of active or inactive are those of the source. Cut-off read from the data, not from the text of the source: active = GI50 up to about 1.1 µM and inactive = higher.

Take `NCC1OC(n2cnc3c(N)ncnc32)CC1O` (stereo not given): the GI50 with TK-10 was > 100 µM (inactive); with HOP-62, > 100 µM (inactive); in the assay with UACC-62 it was > 100 µM (inactive); in the assay on OVCAR-4 it was > 100 µM (inactive); with HCT-15, above 100 µM; with MDA-MB-231 it was > 100 µM (inactive). In addition, the GI50 with T47D, in the assay with RXF 393, in the assay with CAKI-1, in the assay on KM12, in the assay with HL-60 and in the assay with BT-549 was > 100 µM (inactive) in each case. In addition, the GI50 in the assay with SNB-19, with RPMI-8226, in the assay with ACHN, in the assay with SK-MEL-5, in the assay on OVCAR-3 and in the assay on SK-MEL-28 was > 100 µM (inactive) throughout. Further, the GI50 in the assay on NCI-H226 and in the assay on NCI-H522 was > 100 µM (inactive) throughout.
Consider `O=S(=O)(Nc1ccc2ccc3cccc4ccc1c2c34)c1ccccc1`, for which the GI50 in the assay on TK-10 is 38.2 µM (inactive); in the assay with HOP-62, 33.3 µM (inactive); in the assay with UACC-62, 8.95 µM (inactive); with OVCAR-4, > 100 µM (inactive); in the assay with HCT-15, 12.9 µM; in the assay on MDA-MB-231, 30.8 µM (inactive). Moreover, the GI50 with T47D was 28.4 µM (inactive); in the assay on RXF 393, > 100 µM (inactive); in the assay on CAKI-1 it was 6 µM (inactive); with KM12 it was 9.98 µM (inactive); in the assay on HL-60, 37.7 µM (inactive); in the assay with BT-549, > 100 µM (inactive). The GI50 in the assay on SNB-19 is 85.5 µM (inactive); in the assay with RPMI-8226, 6.34 µM (inactive); in the assay on ACHN it was 36.1 µM (inactive); in the assay with SK-MEL-5, 14.1 µM (inactive); with OVCAR-3, 8.26 µM (inactive); in the assay on SK-MEL-28 it was > 100 µM (inactive). Also, the values for the GI50 in the assay on NCI-H226 and in the assay with NCI-H522 were 19.4 µM (inactive) and 4.27 µM (inactive), respectively.
For the compound `O=C(CC(Cl)=C(Cl)Cl)c1ccccc1`, the GI50 in the assay on TK-10 was > 100 µM (inactive); with HOP-62, > 100 µM (inactive); in the assay with UACC-62, 37.5 µM (inactive); in the assay with OVCAR-4 it was 17.5 µM (inactive); with HCT-15 it was 24.8 µM; in the assay with MDA-MB-231, 34.8 µM (inactive). Further, the GI50 in the assay with T47D is 34.7 µM (inactive); with RXF 393 it was 21.2 µM (inactive); in the assay with CAKI-1 it was 24.1 µM (inactive); with KM12 it was 53.1 µM (inactive); in the assay with HL-60, 55.8 µM (inactive); in the assay with BT-549, 66.1 µM (inactive). Besides, the GI50 with SNB-19 is > 100 µM (inactive); with RPMI-8226, 18 µM (inactive); in the assay on ACHN, 43.5 µM (inactive); in the assay on SK-MEL-5, > 100 µM (inactive); in the assay on OVCAR-3 it was 27 µM (inactive); in the assay with SK-MEL-28 it was 55.7 µM (inactive). Also, the GI50 was 28.9 µM (inactive) with NCI-H226 and 23.9 µM (inactive) in the assay with NCI-H522.
`O=C(O)c1c2c(cc3c1CC(Cc1ccccc1)C3=O)CCC2` (stereo not given): the GI50 in the assay on TK-10 is > 100 µM (inactive); in the assay with HOP-62, > 100 µM (inactive); in the assay with UACC-62, > 100 µM (inactive); with OVCAR-4, > 100 µM (inactive); with HCT-15 it was 41.7 µM; with MDA-MB-231, 30.5 µM (inactive). In addition, the GI50 with T47D was > 100 µM (inactive); with RXF 393, > 100 µM (inactive); in the assay on CAKI-1, > 100 µM (inactive); in the assay on KM12, 65.8 µM (inactive); in the assay on HL-60, 22.4 µM (inactive); in the assay on BT-549, > 100 µM (inactive). For the same compound, the GI50 was > 100 µM (inactive) with SNB-19; 39.7 µM (inactive) in the assay on RPMI-8226; 63 µM (inactive) with ACHN; > 100 µM (inactive) in the assay with SK-MEL-5; > 100 µM (inactive) with OVCAR-3; > 100 µM (inactive) in the assay on SK-MEL-28. Besides, the GI50 with NCI-H226 is > 100 µM (inactive); in the assay with NCI-H522, 74.6 µM (inactive).
As for `NC(=O)NC(=O)c1ccc(NC(=O)CBr)cc1`, the GI50 with TK-10 is 1.31 µM (inactive); in the assay with HOP-62, 1.94 µM (inactive); in the assay on UACC-62, 1.86 µM (inactive); in the assay on OVCAR-4, 1.66 µM (inactive); with HCT-15 it was 1.8 µM; with MDA-MB-231, 2.49 µM (inactive). In addition, the GI50 was 1.67 µM (inactive) in the assay on T47D; 1.77 µM (inactive) in the assay on RXF 393; 0.679 µM (active) in the assay with CAKI-1; 4 µM (inactive) with KM12; 1.54 µM (inactive) with HL-60; 2.1 µM (inactive) with BT-549. In addition, the GI50 is 21.9 µM (inactive) with SNB-19; 1.1 µM (active) in the assay on RPMI-8226; 1.44 µM (inactive) with ACHN; 1.62 µM (inactive) with SK-MEL-5; 0.843 µM (active) in the assay with OVCAR-3; 3.2 µM (inactive) in the assay on SK-MEL-28. Further, the GI50 was 3.33 µM (inactive) in the assay on NCI-H226 and 0.128 µM (active) in the assay with NCI-H522.
Regarding `CCC1=NC(C(F)(F)F)(C(F)(F)F)N=C(/N=C(/N)N(C)C(C(C)C)P(=O)(OC(C)C)OC(C)C)O1` (stereo not given), the GI50 was > 100 µM (inactive) in the assay on TK-10; > 100 µM (inactive) in the assay on HOP-62; > 100 µM (inactive) in the assay with UACC-62; > 100 µM (inactive) in the assay on OVCAR-4; above 100 µM in the assay on HCT-15; > 100 µM (inactive) with MDA-MB-231. Moreover, the GI50 in the assay on T47D, with RXF 393, in the assay on CAKI-1, in the assay on KM12, with HL-60 and in the assay on BT-549 was > 100 µM (inactive) in each case. For the same compound, the GI50 in the assay with SNB-19, in the assay on RPMI-8226, with ACHN, with SK-MEL-5, in the assay with OVCAR-3 and with SK-MEL-28 was > 100 µM (inactive) each time. Moreover, the GI50 in the assay with NCI-H226 and with NCI-H522 was > 100 µM (inactive) in each case.
As to `NNC(=O)CC(=O)Nc1ccc(S(=O)(=O)c2ccc(NC(=O)CC(=O)NN)cc2)cc1`, the GI50 with TK-10 is > 100 µM (inactive); with HOP-62, > 100 µM (inactive); in the assay on UACC-62, > 100 µM (inactive); in the assay on OVCAR-4, > 100 µM (inactive); with HCT-15, above 100 µM; with MDA-MB-231, > 100 µM (inactive). Further, the GI50 with T47D, with RXF 393, in the assay with CAKI-1, in the assay with KM12, in the assay with HL-60 and with BT-549 was > 100 µM (inactive) each time. Besides, the GI50 in the assay with SNB-19, in the assay on RPMI-8226, with ACHN, with SK-MEL-5, in the assay on OVCAR-3 and in the assay on SK-MEL-28 was > 100 µM (inactive) each time. For the same compound, the GI50 in the assay with NCI-H226 and with NCI-H522 was > 100 µM (inactive) each time.
`N#Cc1c(O)nc2nn3c4ccc5ccccc5c4nnc3c2c1-c1ccc(Cl)cc1`: the GI50 with TK-10 is 5.89 µM (inactive); in the assay with HOP-62, 3.16 µM (inactive); with UACC-62 it was 1.49 µM (inactive); with OVCAR-4, 3.58 µM (inactive); in the assay with HCT-15, 1.89 µM; in the assay on MDA-MB-231, 5.36 µM (inactive). Besides, the GI50 with T47D was 0.313 µM (active); in the assay on RXF 393, 2.01 µM (inactive); with CAKI-1 it was 2.29 µM (inactive); in the assay with KM12 it was 2.8 µM (inactive); in the assay on HL-60, 0.421 µM (active); in the assay on BT-549, 0.174 µM (active). Besides, the GI50 in the assay with SNB-19 is 3.13 µM (inactive); with RPMI-8226 it was 2.9 µM (inactive); with ACHN it was 2.49 µM (inactive); in the assay on SK-MEL-5, 1.92 µM (inactive); with OVCAR-3, 1.69 µM (inactive); in the assay on SK-MEL-28, 2.24 µM (inactive). Moreover, the GI50 in the assay on NCI-H226 is 7.14 µM (inactive); in the assay on NCI-H522, 1.5 µM (inactive).
On to `CCCC(=O)Nc1cn(COC)c(C(=O)N2C[C@H]3C[C@@]34C2=CC(=O)c2[nH]cc(C)c24)n1`, for which the GI50 with TK-10 was 10.1 µM (inactive); in the assay with HOP-62 it was 7.98 µM (inactive); with UACC-62, 5.92 µM (inactive); in the assay with OVCAR-4, 9.12 µM (inactive); in the assay on HCT-15 it was 11.9 µM; in the assay on MDA-MB-231, 13.1 µM (inactive). Moreover, the GI50 with T47D was 1.88 µM (inactive); with RXF 393, 8.2 µM (inactive); in the assay with CAKI-1, 2.72 µM (inactive); in the assay on KM12 it was > 5 µM (inactive); in the assay with HL-60, 0.728 µM (active); in the assay with BT-549 it was 9.2 µM (inactive). The GI50 with SNB-19 is 18.1 µM (inactive); with RPMI-8226, 6.04 µM (inactive); in the assay on ACHN it was 2.42 µM (inactive); in the assay on SK-MEL-5 it was 4.06 µM (inactive); in the assay with OVCAR-3 it was 10.4 µM (inactive); with SK-MEL-28, 12 µM (inactive). In addition, the GI50 was 9.86 µM (inactive) with NCI-H226 and 1.65 µM (inactive) in the assay with NCI-H522.
Turning to `CC(=O)O[C@H](C[C@@H](C)[C@H]1C(=O)[C@H](O)[C@@]2(C)C3CC[C@H]4C(C)(C)[C@@H](OC5OCC(O)C(O)C5O)CC[C@@]45C[C@@]35CC[C@]12C)[C@@H]1OC1(C)C` (stereo not given in full), the GI50 in the assay with TK-10 was 16.3 µM (inactive); in the assay on HOP-62, 12.1 µM (inactive); in the assay on UACC-62, 14.1 µM (inactive); in the assay on OVCAR-4, 22.4 µM (inactive); in the assay with HCT-15 it was 24.6 µM; with MDA-MB-231 it was 16.1 µM (inactive). The GI50 was 17.4 µM (inactive) in the assay with T47D; 16.8 µM (inactive) with RXF 393; 16.8 µM (inactive) in the assay on CAKI-1; 22.2 µM (inactive) with KM12; 2.21 µM (inactive) with HL-60; 21.9 µM (inactive) in the assay on BT-549. Besides, the GI50 is 20.1 µM (inactive) in the assay on SNB-19; 12.4 µM (inactive) in the assay on RPMI-8226; 14 µM (inactive) in the assay with ACHN; 16.1 µM (inactive) in the assay with SK-MEL-5; 2.29 µM (inactive) with OVCAR-3; 20.3 µM (inactive) in the assay on SK-MEL-28. For the same compound, the GI50 was 17.5 µM (inactive) in the assay on NCI-H226 and 17.4 µM (inactive) in the assay with NCI-H522.
